Source: patent US4009273A, “Substituted 10,11-dihydro-5,10-imino-[5H] dibenzo (a,d)-cycloheptene” (priority 1972, dated 1977)

Experiments:
[1] = system: amphetamine deaths; experiment: Amphetamine toxicity in mice; format: in vivo, mice (female); conditions: for ratio of number of dead animals to number of starting animals: 1 h before 15 mg/kg amphetamine, mortality at 4 h
Procedure: The test was effected on group of 10 female mice weighing between 18 and 22 g kept at 27° C for the duration of the test. The test products were intraperitoneally administered in different doses in a volume of 0.01 ml /g of mouse. One hour later, the mice received an injection of 15 mg/kg of a solution of 1.5 mg of amphetamine per ml of physiological serum. The mortality 4 hours after the amphetamine injection was determined and the results were expressed as a ratio of number of dead animals to number of starting animals.

[2] = Acute toxicity; conditions: mouse, in vivo, ip, Swiss mice, observed for a week
Procedure: The acute toxicity was determined on groups of Swiss mice weighing 18 to 22 g and the test products were administered intraperitoneally in increasing doses and the animals were kept under observation for a week.

[3] = system: pentamethylenetetrazol convulsions; experiment: Anticonvulsant effect (pentamethylenetetrazol perfusion); format: in vivo, mice (female); conditions: 1 h before perfusion
Procedure: The anticonvulsant activity of the compounds was determined on groups of 10 female mice with intraperitoneal administration of the test compounds in acid solution at different doses and the control group received only the solvent. One hour after the injection, the mice were perfused with a solution of pentamethylenetetrazol in physiological serum at a concentration of 3 mg/ml. The perfusion was intraveinous at a rate of 1 ml per minute and in the course of the perfusion, the progress of introxication was characterized by the following 3 criteria:
a. Threshold of convulsant effect (myoclonia of the ears)
b. Crisis of clonic convulsions
c. Tonic convulsion with apnea and generally followed by death.

[4] = system: amytal sleeping time; experiment: Potentialization of sleeping time (amytal); format: in vivo, mice (female); conditions: 1 h before 80 mg/kg amytal i.v.
Procedure: The potentialization of sleeping time was determined with a test using amytal [5-ethyl-5-isoamyl-barbituric acid] in which groups of female mice weighing between 18 and 22 g were kept at 25° C for the duration of the test. The test products were administered intraperitoneally at different doses one hour before intraveinous injection of 80 mg/kg of amytal and the sleeping time was noted which is the time while the reflux of straightening in the mice was negative.

c1ccc2c(c1)CC1NC2c2ccccc21 (stereo not drawn) [Example 1, 10,11-dihydro-5,10-imino-[5H]-dibenzo (a,d) cycloheptene dl]
ratio of number of dead animals to number of starting animals ([1]; 1 mg/Kg i.p.): 10/10 | ratio of number of dead animals to number of starting animals ([1]; 2 mg/Kg i.p.): 5/10 | ratio of number of dead animals to number of starting animals ([1]; 200γ/Kg i.p.): 9/10 | ratio of number of dead animals to number of starting animals ([1]; 500γ/Kg i.p.): 9/10 | LD50 at 168 h [2]: 150 mg/kg

O=C(Oc1ccccc1[N+](=O)[O-])N1C2Cc3ccccc3C1c1ccccc12 (stereo not drawn) [Example 8, 12-(o-nitrophenoxycarbonyl)-10,11-dihydro-5,10-imino-[5H]-dibenzo (a,d) cycloheptene dl]
LD50 at 168 h [2]: > 1000 mg/kg

CP(C)(=O)CN1C2Cc3ccccc3C1c1ccccc12 (stereo not drawn) [Example 9, 12-dimethylphosphorosomethyl-10.11-dihydro-5,10-imino-[5H]-dibenzo (a,d) cycloheptene dl]
LD50 at 168 h [2]: 350 mg/kg

CC(=O)N1C2Cc3ccccc3C1c1ccccc12 (stereo not drawn) [Example 10, 12-acetyl-10,11-dihydro-5,10-imino-5H]-dibenzo (a,d) cycloheptene dl]
LD50 at 168 h [2]: > 500 mg/kg

NC(=O)N1C2Cc3ccccc3C1c1ccccc12 (stereo not drawn) [Example 13, 12-carbamoyl-10,11-dihydro-5,10-imino-[5H]-dibenzo (a,d) cycloheptene dl]
LD50 at 168 h [2]: 1000 mg/kg

CN1C2Cc3ccccc3C1c1ccccc12 (stereo not drawn) [Example 15, 12-methyl-10,11-dihydro-5,10-imino-[5H]-dibenzo (a,d) cycloheptene dl]
ratio of number of dead animals to number of starting animals ([1]; 1 mg/Kg i.p.): 6/10 | ratio of number of dead animals to number of starting animals ([1]; 2 mg/Kg i.p.): 1/10 | ratio of number of dead animals to number of starting animals ([1]; 5 mg/Kg i.p.): 0/10 | ratio of number of dead animals to number of starting animals ([1]; 10 mg/Kg i.p.): 0/10 | ratio of number of dead animals to number of starting animals ([1]; 200γ/Kg i.p.): 10/10 | ratio of number of dead animals to number of starting animals ([1]; 500γ/Kg i.p.): 8/10 | ED50 ([1]; Mus musculus, ip, 4 h, i.p., mice, read-out: DA50 (dose which reduced by half the amphetamine deaths)): 1 mg/kg | Dose of pentamethylenetetrazol, Clonic Crisis ([3]; 1 mg/Kg i.p.): 44.0 mg/kg | Dose of pentamethylenetetrazol, Myoclonia ([3]; 1 mg/Kg i.p.): 38.1 mg/kg | Dose of pentamethylenetetrazol, Tonic Crisis ([3]; 1 mg/Kg i.p.): 182.7 mg/kg | Dose of pentamethylenetetrazol, Clonic Crisis ([3]; 2 mg/Kg i.p.): 52.9 mg/kg | Dose of pentamethylenetetrazol, Myoclonia ([3]; 2 mg/Kg i.p.): 46.7 mg/kg | Dose of pentamethylenetetrazol, Tonic Crisis ([3]; 2 mg/Kg i.p.): 231.8 mg/kg | Dose of pentamethylenetetrazol, Clonic Crisis ([3]; 200γ/Kg i.p.): 43.0 mg/kg | Dose of pentamethylenetetrazol, Myoclonia ([3]; 200γ/Kg i.p.): 38.1 mg/kg | Dose of pentamethylenetetrazol, Tonic Crisis ([3]; 200γ/Kg i.p.): 122.7 mg/kg | Dose of pentamethylenetetrazol, Clonic Crisis ([3]; 500γ/Kg i.p.): 45.9 mg/kg | Dose of pentamethylenetetrazol, Myoclonia ([3]; 500γ/Kg i.p.): 41.1 mg/kg | Dose of pentamethylenetetrazol, Tonic Crisis ([3]; 500γ/Kg i.p.): 134.9 mg/kg | average sleeping time ([4]; 0.5 mg/Kg i.p.): 33.9 min | average sleeping time ([4]; 1 mg/Kg i.p.): 32.9 min | average sleeping time ([4]; 2 mg/Kg i.p.): 30.6 min | average sleeping time ([4]; 5 mg/Kg i.p.): 42.9 min | average sleeping time ([4]; 10 mg/Kg i.p.): 78.6 min | LD50 at 168 h [2]: 175 mg/kg

C[N+]1(C)C2Cc3ccccc3C1c1ccccc12 (stereo not drawn) [Example 16, 12-methyl-10,11-dihydro-5,10-imino-[5H]-dibenzo (a,d) cycloheptene dl iodomethylate]
LD50 at 168 h [2]: > 200 mg/kg

CCOC(=O)N1C2Cc3ccccc3C1c1ccccc12 (stereo not drawn) [Example 17, 12-carbethoxy-10,11-dihydro-5,10imino-[5H]-dibenzo (a,d) cycloheptene dl]
LD50 at 168 h [2]: 1000 mg/kg

C=CCN1C2Cc3ccccc3C1c1ccccc12 (stereo not drawn) [Example 19, 12-allyl-10,11-dihydro-5,10-imino-[5H]-dibenzo (a,d) cyclo-heptene dl]
Dose of pentamethylenetetrazol, Clonic Crisis ([3]; 2 mg/Kg i.p.): 50.0 mg/kg | Dose of pentamethylenetetrazol, Myoclonia ([3]; 2 mg/Kg i.p.): 44.8 mg/kg | Dose of pentamethylenetetrazol, Tonic Crisis ([3]; 2 mg/Kg i.p.): 150.8 mg/kg | Dose of pentamethylenetetrazol, Clonic Crisis ([3]; 5 mg/Kg i.p.): 49.8 mg/kg | Dose of pentamethylenetetrazol, Myoclonia ([3]; 5 mg/Kg i.p.): 44.5 mg/kg | Dose of pentamethylenetetrazol, Tonic Crisis ([3]; 5 mg/Kg i.p.): 136.0 mg/kg | Dose of pentamethylenetetrazol, Clonic Crisis ([3]; 10 mg/Kg i.p.): 52.4 mg/kg | Dose of pentamethylenetetrazol, Myoclonia ([3]; 10 mg/Kg i.p.): 47.4 mg/kg | Dose of pentamethylenetetrazol, Tonic Crisis ([3]; 10 mg/Kg i.p.): 241.9 mg/kg | Dose of pentamethylenetetrazol, Clonic Crisis ([3]; 20 mg/Kg i.p.): 54.7 mg/kg | Dose of pentamethylenetetrazol, Myoclonia ([3]; 20 mg/Kg i.p.): 49.2 mg/kg | Dose of pentamethylenetetrazol, Tonic Crisis ([3]; 20 mg/Kg i.p.): 271.8 mg/kg | average sleeping time ([4]; 2 mg/Kg i.p.): 37.1 min | average sleeping time ([4]; 5 mg/Kg i.p.): 65.1 min | average sleeping time ([4]; 10 mg/Kg i.p.): 71.7 min | average sleeping time ([4]; 20 mg/Kg i.p.): > 120 min | LD50 at 168 h [2]: 350 mg/kg

C#CCN1C2Cc3ccccc3C1c1ccccc12 (stereo not drawn) [Example 20, 12-propargyl-10,11-dihydro-5,10-imino-[5H]-dibenzo (a,d) cycloheptene dl]
ratio of number of dead animals to number of starting animals ([1]; 2 mg/Kg i.p.): 9/10 | ratio of number of dead animals to number of starting animals ([1]; 5 mg/Kg i.p.): 9/10 | ratio of number of dead animals to number of starting animals ([1]; 10 mg/Kg i.p.): 7/10 | ratio of number of dead animals to number of starting animals ([1]; 20 mg/Kg i.p.): 1/10 | Dose of pentamethylenetetrazol, Clonic Crisis ([3]; 0.5 mg/Kg i.p.): 49.1 mg/kg | Dose of pentamethylenetetrazol, Myoclonia ([3]; 0.5 mg/Kg i.p.): 44.2 mg/kg | Dose of pentamethylenetetrazol, Tonic Crisis ([3]; 0.5 mg/Kg i.p.): 140.7 mg/kg | Dose of pentamethylenetetrazol, Clonic Crisis ([3]; 1 mg/Kg i.p.): 46.7 mg/kg | Dose of pentamethylenetetrazol, Myoclonia ([3]; 1 mg/Kg i.p.): 41.9 mg/kg | Dose of pentamethylenetetrazol, Tonic Crisis ([3]; 1 mg/Kg i.p.): 146.4 mg/kg | Dose of pentamethylenetetrazol, Clonic Crisis ([3]; 2 mg/Kg i.p.): 46.2 mg/kg | Dose of pentamethylenetetrazol, Myoclonia ([3]; 2 mg/Kg i.p.): 41.2 mg/kg | Dose of pentamethylenetetrazol, Tonic Crisis ([3]; 2 mg/Kg i.p.): 168.5 mg/kg | Dose of pentamethylenetetrazol, Clonic Crisis ([3]; 5 mg/Kg i.p.): 49.0 mg/kg | Dose of pentamethylenetetrazol, Myoclonia ([3]; 5 mg/Kg i.p.): 43.9 mg/kg | Dose of pentamethylenetetrazol, Tonic Crisis ([3]; 5 mg/Kg i.p.): 221.7 mg/kg | average sleeping time ([4]; 0.5 mg/Kg i.p.): 41.8 min | average sleeping time ([4]; 1 mg/Kg i.p.): 46.5 min | average sleeping time ([4]; 2 mg/Kg i.p.): 49.4 min | average sleeping time ([4]; 5 mg/Kg i.p.): 64.9 min

c1ccc(CN2C3Cc4ccccc4C2c2ccccc23)cc1 (stereo not drawn) [Example 23, 12-benzyl-10,11-dihydro-5,10-imino-[5H]-dibenzo (a,d) cycloheptene dl]
LD50 at 168 h [2]: > 400 mg/kg

CCCN1C2Cc3ccccc3C1c1ccccc12 (stereo not drawn) [Example 24, 12-n-propyl-10,11-dihydro-5,10-imino[5H]-dibenzo (a,d) cycloheptene dl]
ratio of number of dead animals to number of starting animals ([1]; 5 mg/Kg i.p.): 10/10 | ratio of number of dead animals to number of starting animals ([1]; 10 mg/Kg i.p.): 9/10 | ratio of number of dead animals to number of starting animals ([1]; 20 mg/Kg i.p.): 3/10 | Dose of pentamethylenetetrazol, Clonic Crisis ([3]; 1 mg/Kg i.p.): 61.8 mg/kg | Dose of pentamethylenetetrazol, Myoclonia ([3]; 1 mg/Kg i.p.): 54.2 mg/kg | Dose of pentamethylenetetrazol, Tonic Crisis ([3]; 1 mg/Kg i.p.): 170.3 mg/kg | Dose of pentamethylenetetrazol, Clonic Crisis ([3]; 2 mg/Kg i.p.): 57.3 mg/kg | Dose of pentamethylenetetrazol, Myoclonia ([3]; 2 mg/Kg i.p.): 50.4 mg/kg | Dose of pentamethylenetetrazol, Tonic Crisis ([3]; 2 mg/Kg i.p.): 225.8 mg/kg | Dose of pentamethylenetetrazol, Clonic Crisis ([3]; 5 mg/Kg i.p.): 60.0 mg/kg | Dose of pentamethylenetetrazol, Myoclonia ([3]; 5 mg/Kg i.p.): 51.4 mg/kg | Dose of pentamethylenetetrazol, Tonic Crisis ([3]; 5 mg/Kg i.p.): 265.2 mg/kg | Dose of pentamethylenetetrazol, Clonic Crisis ([3]; 10 mg/Kg i.p.): 78.4 mg/kg | Dose of pentamethylenetetrazol, Myoclonia ([3]; 10 mg/Kg i.p.): 57.7 mg/kg | Dose of pentamethylenetetrazol, Tonic Crisis ([3]; 10 mg/Kg i.p.): 275.9 mg/kg | average sleeping time ([4]; 2 mg/Kg i.p.): 38.6 min | average sleeping time ([4]; 5 mg/Kg i.p.): 42.2 min | average sleeping time ([4]; 10 mg/Kg i.p.): 65.1 min | average sleeping time ([4]; 20 mg/Kg i.p.): 103.7 min | LD50 at 168 h [2]: ~250 mg/kg

CNCC(=O)N1C2Cc3ccccc3C1c1ccccc12 (stereo not drawn) [Example 25, 12-(methylaminoacetyl)-10,11-dihydro-5,10-imino-[5H]-dibenzo (a,d) cycloheptene dl]
LD50 at 168 h [2]: ~300 mg/kg
